Experimental data reported in the supplement of paper PMC8671470.

Each compound was assayed on BV-173. Details: 72 h.
Outline: (§1)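 The IC50 was read from log-logistic dose–response fits. Fifteen myeloid leukaemia lines were exposed for 72 h at 37 °C with 5% CO2 to five tenfold doses from 1 to 10,000 nM in duplicate. ATP luminescence, normalised to vehicle and to a 10 µM positive control, was fitted with four parameters.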

`CN(CCCOc1ccc(Cc2ccccc2)cc1)CCC(=O)O` and `Cc1nc(-c2ccccc2)sc1C(=O)Nc1ccc(S(N)(=O)=O)cc1` cannot be ordered by “IC50 (cell viability)” value: greater than 10 µM for the first, greater than 10 µM for the second.

`Cc1c2c(=O)n(-c3ccccc3Cl)[nH]c2cc(=O)n1Cc1ccccn1` and `O=c1cc(-c2ccccc2)oc2c1ccc1ccccc12` [Alpha-Naphtoflavone] cannot be ordered by “IC50 (cell viability)” value: greater than 10 µM for the first, greater than 10 µM for the second.

`COc1ccc2c(NC(=O)Nc3cccc(C(F)(F)F)n3)ccnc2c1` and `Cn1cc(-c2ccncc2)c(-c2ccc(OCc3ccc4ccccc4n3)cc2)n1` cannot be ordered by “IC50 (cell viability)” value: greater than 10 µM for the first, greater than 10 µM for the second.

First: O=c1cc(N2CCOCC2)oc2c(-c3ccccc3)cccc12
Second: O=C1C(SCCO)=C(SCCO)C(=O)c2ccccc21
The “IC50 (cell viability)” value of the first is 13-fold lower: 0.0237 µM for the first, 0.309 µM for the second.

First: O=C(O)CC[N+](=O)[O-] [3-nitropropionic acid]
Second: C=CC(=O)c1ccc(O)cc1 [4-Acryloylphenol]
The “IC50 (cell viability)” value of the first is higher: greater than 10 µM for the first, 3.1 µM for the second.

In the case of `Cc1[nH]nc(C(F)(F)F)c1Cc1sc2c(c1C(=O)N1C[C@](C)(O)CO1)c(=O)n(C)c(=O)n2C(C)C` [AZD3965], the “IC50 (cell viability)” value is reported as 0.0362 µM.

What follows are compounds tested on HEL. Details: 72 h.
Outline: as §1

`CN(CCCOc1ccc(Cc2ccccc2)cc1)CCC(=O)O` and `Cc1nc(-c2ccccc2)sc1C(=O)Nc1ccc(S(N)(=O)=O)cc1` cannot be ordered by “IC50 (cell viability)” value: greater than 10 µM for the first, greater than 10 µM for the second.

`Cc1c2c(=O)n(-c3ccccc3Cl)[nH]c2cc(=O)n1Cc1ccccn1` and `O=c1cc(-c2ccccc2)oc2c1ccc1ccccc12` [Alpha-Naphtoflavone] cannot be ordered by “IC50 (cell viability)” value: greater than 10 µM for the first, greater than 10 µM for the second.

Compared with `COc1ccc2c(NC(=O)Nc3cccc(C(F)(F)F)n3)ccnc2c1`, `Cn1cc(-c2ccncc2)c(-c2ccc(OCc3ccc4ccccc4n3)cc2)n1` is lower in “IC50 (cell viability)” value: greater than 10 µM for the first, 9.86 µM for the second.

Going from `O=c1cc(N2CCOCC2)oc2c(-c3ccccc3)cccc12` to `O=C1C(SCCO)=C(SCCO)C(=O)c2ccccc21`, the “IC50 (cell viability)” value rises from 0.0487 µM to 1.51 µM (31-fold).

Compared with `O=C(O)CC[N+](=O)[O-]` [3-nitropropionic acid], `C=CC(=O)c1ccc(O)cc1` [4-Acryloylphenol] is lower in “IC50 (cell viability)” value: greater than 10 µM for the first, 6.6 µM for the second.

With `Cc1[nH]nc(C(F)(F)F)c1Cc1sc2c(c1C(=O)N1C[C@](C)(O)CO1)c(=O)n(C)c(=O)n2C(C)C` [AZD3965] the “IC50 (cell viability)” value was greater than 10 µM.

Each compound was assayed on HL-60. Details: 72 h.
Outline: as §1

`CN(CCCOc1ccc(Cc2ccccc2)cc1)CCC(=O)O` and `Cc1nc(-c2ccccc2)sc1C(=O)Nc1ccc(S(N)(=O)=O)cc1` cannot be ordered by “IC50 (cell viability)” value: greater than 10 µM for the first, greater than 10 µM for the second.

`Cc1c2c(=O)n(-c3ccccc3Cl)[nH]c2cc(=O)n1Cc1ccccn1` and `O=c1cc(-c2ccccc2)oc2c1ccc1ccccc12` [Alpha-Naphtoflavone] cannot be ordered by “IC50 (cell viability)” value: greater than 10 µM for the first, greater than 10 µM for the second.

`COc1ccc2c(NC(=O)Nc3cccc(C(F)(F)F)n3)ccnc2c1` and `Cn1cc(-c2ccncc2)c(-c2ccc(OCc3ccc4ccccc4n3)cc2)n1` cannot be ordered by “IC50 (cell viability)” value: greater than 10 µM for the first, greater than 10 µM for the second.

First: O=c1cc(N2CCOCC2)oc2c(-c3ccccc3)cccc12
Second: O=C1C(SCCO)=C(SCCO)C(=O)c2ccccc21
The “IC50 (cell viability)” value of the first is 9.7-fold lower: 0.334 µM for the first, 3.23 µM for the second.

First: O=C(O)CC[N+](=O)[O-] [3-nitropropionic acid]
Second: C=CC(=O)c1ccc(O)cc1 [4-Acryloylphenol]
The “IC50 (cell viability)” value of the first is lower: 4.69 µM for the first, greater than 10 µM for the second.

For `Cc1[nH]nc(C(F)(F)F)c1Cc1sc2c(c1C(=O)N1C[C@](C)(O)CO1)c(=O)n(C)c(=O)n2C(C)C` [AZD3965], the “IC50 (cell viability)” value was greater than 10 µM.

These compounds were tested on K-562. Details: 72 h.
Outline: as §1

`CN(CCCOc1ccc(Cc2ccccc2)cc1)CCC(=O)O` and `Cc1nc(-c2ccccc2)sc1C(=O)Nc1ccc(S(N)(=O)=O)cc1` cannot be ordered by “IC50 (cell viability)” value: greater than 10 µM for the first, greater than 10 µM for the second.

Compared with `Cc1c2c(=O)n(-c3ccccc3Cl)[nH]c2cc(=O)n1Cc1ccccn1`, `O=c1cc(-c2ccccc2)oc2c1ccc1ccccc12` [Alpha-Naphtoflavone] is higher in “IC50 (cell viability)” value: 6.52 µM for the first, greater than 10 µM for the second.

`COc1ccc2c(NC(=O)Nc3cccc(C(F)(F)F)n3)ccnc2c1` and `Cn1cc(-c2ccncc2)c(-c2ccc(OCc3ccc4ccccc4n3)cc2)n1` cannot be ordered by “IC50 (cell viability)” value: greater than 10 µM for the first, greater than 10 µM for the second.

Compared with `O=c1cc(N2CCOCC2)oc2c(-c3ccccc3)cccc12`, `O=C1C(SCCO)=C(SCCO)C(=O)c2ccccc21` is 1.9-fold higher in “IC50 (cell viability)” value: 0.291 µM for the first, 0.549 µM for the second.

First: O=C(O)CC[N+](=O)[O-] [3-nitropropionic acid]
Second: C=CC(=O)c1ccc(O)cc1 [4-Acryloylphenol]
The “IC50 (cell viability)” value of the first is lower: 3.64 µM for the first, greater than 10 µM for the second.

With `Cc1[nH]nc(C(F)(F)F)c1Cc1sc2c(c1C(=O)N1C[C@](C)(O)CO1)c(=O)n(C)c(=O)n2C(C)C` [AZD3965] the “IC50 (cell viability)” value was 0.00627 µM.

The compounds below were run on KCL-22. Details: 72 h.
Outline: as §1

`CN(CCCOc1ccc(Cc2ccccc2)cc1)CCC(=O)O` and `Cc1nc(-c2ccccc2)sc1C(=O)Nc1ccc(S(N)(=O)=O)cc1` cannot be ordered by “IC50 (cell viability)” value: greater than 10 µM for the first, greater than 10 µM for the second.

`Cc1c2c(=O)n(-c3ccccc3Cl)[nH]c2cc(=O)n1Cc1ccccn1` and `O=c1cc(-c2ccccc2)oc2c1ccc1ccccc12` [Alpha-Naphtoflavone] cannot be ordered by “IC50 (cell viability)” value: greater than 10 µM for the first, greater than 10 µM for the second.

`COc1ccc2c(NC(=O)Nc3cccc(C(F)(F)F)n3)ccnc2c1` and `Cn1cc(-c2ccncc2)c(-c2ccc(OCc3ccc4ccccc4n3)cc2)n1` cannot be ordered by “IC50 (cell viability)” value: greater than 10 µM for the first, greater than 10 µM for the second.

Going from `O=c1cc(N2CCOCC2)oc2c(-c3ccccc3)cccc12` to `O=C1C(SCCO)=C(SCCO)C(=O)c2ccccc21`, the “IC50 (cell viability)” value falls from 9.05 µM to 0.664 µM (14-fold).

Going from `O=C(O)CC[N+](=O)[O-]` [3-nitropropionic acid] to `C=CC(=O)c1ccc(O)cc1` [4-Acryloylphenol], the “IC50 (cell viability)” value falls from greater than 10 µM to 6.68 µM.

`Cc1[nH]nc(C(F)(F)F)c1Cc1sc2c(c1C(=O)N1C[C@](C)(O)CO1)c(=O)n(C)c(=O)n2C(C)C` [AZD3965] was tested, and the “IC50 (cell viability)” value was greater than 10 µM.

Each compound was assayed on KG-1. Details: 72 h.
Outline: as §1

`CN(CCCOc1ccc(Cc2ccccc2)cc1)CCC(=O)O` and `Cc1nc(-c2ccccc2)sc1C(=O)Nc1ccc(S(N)(=O)=O)cc1` cannot be ordered by “IC50 (cell viability)” value: greater than 10 µM for the first, greater than 10 µM for the second.

First: Cc1c2c(=O)n(-c3ccccc3Cl)[nH]c2cc(=O)n1Cc1ccccn1
Second: O=c1cc(N2CCOCC2)oc2c(-c3ccccc3)cccc12
The “IC50 (cell viability)” value of the first is higher: greater than 10 µM for the first, 4.97 µM for the second.

`COc1ccc2c(NC(=O)Nc3cccc(C(F)(F)F)n3)ccnc2c1` and `Cn1cc(-c2ccncc2)c(-c2ccc(OCc3ccc4ccccc4n3)cc2)n1` cannot be ordered by “IC50 (cell viability)” value: greater than 10 µM for the first, greater than 10 µM for the second.

`O=C1C(SCCO)=C(SCCO)C(=O)c2ccccc21` was tested, and the “IC50 (cell viability)” value was 0.507 µM.
